# Data from article PMC10452460, “In Silico, In Vitro, and In Vivo Investigations on Adapalene as Repurposed Third Generation Retinoid against Multiple Myeloma and Leukemia” (Cancers, 2023).
# Molecular target: T1, c-MYC (Homo sapiens, UniProt P01106)
# T1 construct: recombinant human c-MYC protein (ab169901, Abcam)
# Assay: microscale thermophoresis with Blue-NHS labelled c-MYC ([…])
# Format: binding
# T1 sequence (P01106 16-454): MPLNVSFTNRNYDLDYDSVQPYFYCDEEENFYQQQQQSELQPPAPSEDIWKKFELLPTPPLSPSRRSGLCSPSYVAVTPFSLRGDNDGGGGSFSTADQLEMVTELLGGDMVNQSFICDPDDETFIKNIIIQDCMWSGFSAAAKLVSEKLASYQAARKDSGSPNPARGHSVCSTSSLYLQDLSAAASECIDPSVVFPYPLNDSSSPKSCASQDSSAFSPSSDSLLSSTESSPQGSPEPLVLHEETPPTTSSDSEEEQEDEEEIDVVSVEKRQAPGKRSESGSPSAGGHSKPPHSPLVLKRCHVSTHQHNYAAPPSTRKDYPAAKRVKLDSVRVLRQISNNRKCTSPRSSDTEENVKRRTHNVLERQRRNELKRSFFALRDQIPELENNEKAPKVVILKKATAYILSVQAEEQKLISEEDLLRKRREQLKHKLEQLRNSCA
smiles,measurement,value
COc1ccc(-c2ccc3cc(C(=O)O)ccc3c2)cc1C12CC3CC(CC(C3)C1)C2 [adapalene],Kd,3.05 µM
